Measurements reported in patent publication US9518300B2, “Composition and method for treating a hematological malignancy” (Dana-Farber Cancer Institute, Inc., priority 2014, dated 2016).

Key:
CD138+ primary cells = assay: Proliferation of patient CD138+ primary MM cells, [3H] thymidine uptake; format: cell-based, human; details: 40 pmol
Description: Cell proliferation was assessed by [^3H] thymidine uptake as described (1). For apoptosis, cells were stained with Annexin-V-Fluos (Boehringer, Mannheim, Germany). Stained cells were analyzed by flow cytometry, and data were analyzed by use of CellQuest (Becton-Dickinson, Sunnyvale, Calif.). Cell invasion and migration assays were done as described (2).
(§1) In order to verify miR-30's potential for therapy in MM patients, CD138+ primary cells (n=3) were transfected with 40 pmol of mature miR-30c or same amount of cel-miR-67 as control.

BCL9 [1] = assay: Transfection of patient CD138+ primary cells, IF of BCL9, CD44, Axin2; format: cell-based, human; details: CD138+ primary cells (n=3), 40 pmol, control cel-miR-67
Source text: as §1

H929 cells = assay: Dexamethasone sensitivity of H929 cells co-cultured with HS-5 BMSCs (CAM-DR); format: cell-based, human; details: H929 with HS-5 cells 48 h, 200 nM dexamethasone, control cel-miR-67
Source text: Reasoning that CD44 is a downstream target of Wnt/β-catenin/BCL9 transcriptional complex, and that miR-30c downregulates expression of CD44 in MM cells (FIG. 3B), and that CD44 is a functional component of cell adhesion-mediated drug resistance (CAM-DR), we investigated the possible role of miR-30s in MM drug resistance in the context of a bone marrow (BM) microenvironment. After ectopic overexpression of miR-30c or miR-30a/b/c/d/e cocktail (miR-30mix) or a negative control (cel-miR-67) in H929 cells, we co-cultured these cells alone or in the presence of HS-5 cells for 48 h and treated them with 200 nM dexamethasone.

BCL9 [2] = assay: BCL9 and Wnt target gene expression after ectopic miR-30 expression (Q-RT-PCR, immunoblot, IF); format: cell-based, human; details: H929 cells
Source text: We next investigated whether BCL9 mRNA expression is regulated by miR-30s in MM cells using both gain- and loss-of function studies. For gain-of-function studies we used H929 cells that express the lowest levels of miR-30s among the MM cell lines examined (FIG. 1C).
We first induced ectopic expression of individual V-miR-30s family members in H929 cells using lentiviral infection. After flow sorting of GFP positive cells, levels of miR-30s were verified by Q-RT-PCR (FIG. 3A) and then used in subsequent experiments.

BCL9 [3] = assay: Transient transfection of mature miR-30c, BCL9 immunoblot in RPMI8226 cells; format: cell-based, human; details: increasing amounts of mature miR-30c, 72 hours, control cel-miR-67
Description: To exclude the possibility that the observed changes in BCL9 expression may be due to non specific and/or secondary effects of stable transfection of V-miR-30c, we also performed transient transfection with increasing amounts of mature miR-30c into RPMI8226 cells, using cel-miR-67 as a control (FIG. 3F).
To confirm transfection efficiency, cells were collected 72 hours after transfection, and miR-30c expression levels were checked by Q-RT-PCR (FIG. 3F, top). We found an inverse association between downregulation of BCL9 protein expression and increasing amounts of transfected mature miR-30c (FIG. 3F, bottom).

[4] = μCT of bone in mice not transplanted with myeloma cells; format: in vivo; details: SCID mice not transplanted, 10 days of treatment, versus vehicle
Description: Micro-computed topographic (μCT) imaging was performed on the L4-L6 vertebrae of the intact spine of a subset of mice using a high-resolution desktop imaging system (μCT40, Scanco Medical AG, Bruttisellen, Switzerland). Scans were acquired using a 12 μm^3 isotropic voxel size, 70 kVp peak x-ray tube potential, and 200 ms integration time. Cortical and trabecular bone micro architecture was quantified in the 5th lumbar vertebral body in a region beginning 120 μm below the cranial growth plate and ending 120 μm above the caudal growth plate. To assess cortical lesions, we determined the cortical bone volume (Ct.BV) and total volume (Ct.TV) of the ventral face of the vertebral body. Cortical void fraction (%) was calculated as 1−(Ct.BV/Ct.TV)*100 and represents the percent of the ventral face that was void of bone. Trabecular bone volume fraction (Tb.BV/Tb.TV, %) was measured in the region of interest. […]
Micro-computed topographic (μCT) imaging was performed on the L4-L6 vertebrae of the intact spine of a subset of mice using a high-resolution desktop imaging system ([…], Scanco Medical AG, Bruttisellen, Switzerland). […] Cortical and trabecular bone micro architecture was quantified in the 5th lumbar vertebral body in a region beginning 120 μm below the cranial growth plate and ending 120 μm above the caudal growth plate. […]

With “miR-30c: microRNA, UGUAAACAUCCUACACUCUCAGC (SEQ ID NO: 3 / 29) (listed as RNA, chemistry not given here; listed as Homo sapiens)” the MM cell proliferation (CD138+ primary cells) was “dramatically inhibited”, the “expression of BCL9, CD44 and Axin2” value (BCL9 [1]) was “downregulated” and the “sensitivity to dexamethasone treatment” value (H929 cells) was “resensitize”. The “expression of BCL9 mRNA” value (BCL9 [2]) was “significant reduction”, the “expression of Wnt pathway downstream targets CD44 and Axin2” value (BCL9 [2]) was “reduced expression” and the BCL9 protein expression (BCL9 [3]) was “downregulation”. For the same substance, the bone osteolytic lesions [4] was “No apparent development”.
